Where a SMILES comes first, the peptide text is derived from it.
Tests used:
primary human cells [1] = assay: Aspartame first activity profile (FIG. 46): biomarker readouts; type: cell-based
Procedure: (§1) Profiling was performed using the following processes:
FIG. 46 provides a first activity profile of aspartame. The key activities of aspartame include inflammation-related activities: decreased MCP-1 and SAA; increased IL-8, IL-1α and VCAM-1; immunomodulatory activities: decreased sIL-2; increased sIgG and sIL-6; modulated CD69; and tissue remodeling activities: decreased MMP-9; increased Collagen-I and tPA; modulated PAI-I.

B cells = assay: Aspartame second activity profile (FIG. 47): anti-proliferative activity; type: cell-based, human
Procedure: as §1
(§2) FIG. 47 provides a second activity profile of aspartame. The key activities of aspartame include anti-proliferative to B cells (grey arrow); inflammation-related activities: decreased sTNFα and IL1α; increased MCP-1 and VCAM-1; immunomodulatory activities: increased sIL-17A, sIL-17F, sIL-6, and CD40; and tissue remodeling activities: decreased MMP9; increased MMP3, αSMA, and Col-I.

primary human cells [2] = assay: Aspartame second activity profile (FIG. 47): biomarker readouts; type: cell-based
Procedure: as §1, §2

## COC(=O)[C@H](Cc1ccccc1)NC(=O)[C@@H](N)CC(=O)O [aspartame] (H-Asp-Phe-OMe)
Primary human cells [1]; immunomodulatory activity
  CD69: modulated
  sIL-2: decreased
  sIL-6: increased
  sIgG: increased
Primary human cells [1]; inflammation-related activity
  IL-1α: increased
  IL-8: increased
  MCP-1: decreased
  SAA: decreased
  VCAM-1: increased
Primary human cells [1]; tissue remodeling activity
  Collagen-I: increased
  MMP-9: decreased
  PAI-I: modulated
  tPA: increased
B cells
  proliferation of B cells: anti-proliferative
Primary human cells [2]; immunomodulatory activity
  CD40: increased
  sIL-6: increased
  sIL-17A: increased
  sIL-17F: increased
Primary human cells [2]; inflammation-related activity
  IL1α: decreased
  MCP-1: increased
  VCAM-1: increased
  sTNFα: decreased
Primary human cells [2]; tissue remodeling activity
  Col-I: increased
  MMP3: increased
  MMP9: decreased
  αSMA: increased

Reference: patent US20210163308A1, “COMPOSITIONS AND METHODS FOR THE MODULATION OF CYTOKINES” (GALLEON LABS LLC, priority 2018, published 2021)
